Assay results: publication PMC5394417, “Investigating the molecular mechanism of positive and negative allosteric modulators in the calcium-sensing receptor dimer” (Scientific Reports, 2017)
Each block holds one molecule with its values, some of them ahead of it.

Columns and labels:
Format in all cases: cell-based
HA-E837A CaSR mutant = target: T1, HA-E837A CaSR mutant (Rattus norvegicus, UniProt P48442, E837A); experiment: IP-One assay, HEK293T transiently transfected; conditions: for effect on the Ca^2+-induced response: E837A mutant; for EC50 / pEC50 ± S.E.M. / Max ± S.E.M.: HA-E837A
T1 construct: mGluR5 signal peptide (N); expressed in transfected cells; host or cells: HEK293T
T1 sequence (P48442 20-1079 E837A): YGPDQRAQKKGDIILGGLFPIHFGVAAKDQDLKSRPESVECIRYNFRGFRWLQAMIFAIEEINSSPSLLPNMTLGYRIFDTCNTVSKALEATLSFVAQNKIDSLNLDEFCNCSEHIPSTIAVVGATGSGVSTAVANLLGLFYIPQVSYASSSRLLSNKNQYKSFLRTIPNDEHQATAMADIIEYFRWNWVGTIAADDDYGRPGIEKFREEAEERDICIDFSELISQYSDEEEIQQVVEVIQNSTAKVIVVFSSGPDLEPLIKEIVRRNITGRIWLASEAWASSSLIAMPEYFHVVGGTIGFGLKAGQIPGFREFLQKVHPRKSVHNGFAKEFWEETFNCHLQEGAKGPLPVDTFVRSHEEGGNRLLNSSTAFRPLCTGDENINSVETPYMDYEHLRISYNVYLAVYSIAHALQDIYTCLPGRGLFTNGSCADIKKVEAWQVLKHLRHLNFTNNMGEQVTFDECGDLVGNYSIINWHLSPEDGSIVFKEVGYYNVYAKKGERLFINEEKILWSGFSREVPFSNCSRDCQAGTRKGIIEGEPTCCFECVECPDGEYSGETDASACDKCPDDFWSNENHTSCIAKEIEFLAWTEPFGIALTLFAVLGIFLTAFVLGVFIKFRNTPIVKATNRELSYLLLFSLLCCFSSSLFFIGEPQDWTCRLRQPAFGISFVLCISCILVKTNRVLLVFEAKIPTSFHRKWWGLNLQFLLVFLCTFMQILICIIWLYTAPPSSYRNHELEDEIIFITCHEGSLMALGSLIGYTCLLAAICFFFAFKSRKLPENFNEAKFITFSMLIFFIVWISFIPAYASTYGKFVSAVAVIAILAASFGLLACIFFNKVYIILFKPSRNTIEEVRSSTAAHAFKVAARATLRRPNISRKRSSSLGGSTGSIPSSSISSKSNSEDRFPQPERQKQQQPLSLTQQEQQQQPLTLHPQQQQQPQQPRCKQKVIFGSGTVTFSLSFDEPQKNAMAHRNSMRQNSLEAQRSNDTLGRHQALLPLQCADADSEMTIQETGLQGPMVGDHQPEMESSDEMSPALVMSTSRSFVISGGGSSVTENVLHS
Experimental: (§1) Human embryonic kidney (HEK) 293T cells were cultured in DMEM supplemented with 10% dFBS and 1% P/S at 37 °C and 5% CO2. 48 h prior to assay, transient transfection was performed using Lipofectamine 2000 as the transfection reagent. White opaque 96-well culture plates (PerkinElmer, Waltham, MA, USA) were used for the ELISA and the TR-FRET dimerization assay, while clear tissue culture treated 96-well plates (Corning, Corning, NY, USA) were used for the IP-One assay. Both plate types were coated with poly-D-lysine before addition of cells and transfection mix. 0.25 μl/well of Lipofectamine 2000 were diluted in 25 μl/well of Opti-MEM and incubated at room temperature (RT) for 5 min. 0.03 μg/well of DNA was diluted in 25 μl/well of Opti-MEM, and subsequently mixed with the Lipofectamine 2000 dilution and incubated 20 min at RT before addition to the plates. Cell suspensions of 170.000 HEK293T cells/mL were prepared in complete growth medium and 100 μl/well (17.000 cells/well) was added to the plates, which were incubated for 48 h at 37 °C and 5% CO2 before performing assays.
(§2) Functional activity was measured using the IP-One assay, which is an IP1 accumulation assay. For agonist testing, ligands were prepared in final concentrations in ligand buffer (HBSS, 20 mM HEPES, pH 7.4 supplemented with 20 mM LiCl). Cells were washed once with 100 μl/well of assay buffer (HBSS, 20 mM HEPES, pH 7.4) and 50 μl/well of agonist solution was added after which plates were incubated at 37 °C for 30 min. Subsequently, ligand solutions were removed and cells were washed with 100 μl/well of assay buffer. Cell lysis was performed by addition of 30 μl/well of IP-One Conjugate & Lysis Buffer (Cisbio Bioassays, Codolet, France) and plates were incubated at RT for 30 min. Afterwards, 30 μl/well of assay buffer was added to dilute the cell lysate. 10 μl/well of cell lysate was transferred from the 96-well plate to a 384-well Optiplate and 10 μl/well of detection solution (Assay buffer + 2.5% of anti-IP1 antibody cryptate Terbium conjugate + 2.5% IP1-d2 conjugate (Cisbio Bioassays, Codolet, France)) was also added. The 384-well plate was incubated for 1 h at RT in dark before being measured on an EnVision plate reader (PerkinElmer, Waltham, MA, USA). Upon excitation at 340 nm, emission at 615 nm and 665 nm was measured, and the FRET ratio (665 nm/615 nm) was converted to IP1 concentrations by interpolating values from an IP1 standard curve generated from a provided IP1 calibrator (Cisbio Bioassays, Codolet, France). When testing allosteric modulators, cells were pre-incubated for 30 min at 37 °C with 50 μl/well of ligand buffer supplemented with allosteric modulator and a final concentration of 1% DMSO. Afterwards, the buffer solution was removed and 50 μl/well of agonist solution in ligand buffer supplemented with allosteric modulator and a final concentration of 1% DMSO was added. Plates were incubated for 30 min at 37 °C followed by one wash in 100 μl/well of assay buffer. Cell lysis and detection was performed as described above.

[1] = target: T2, S170A:F801A/E837A heterodimer (Rattus norvegicus, UniProt P48442, E837A/F801A/S170A); experiment: IP-One trans-activation assay, co-expression 1:1 in HEK293T
T2 construct: mGluR5 signal peptide (N); expressed in transfected cells; host or cells: HEK293T
Experimental: as §1, §2

[2] = target: T3, S170A/E837A:F801A/E837A heterodimer (Rattus norvegicus, UniProt P48442, E837A/F801A/S170A); experiment: as above
T3 construct: mGluR5 signal peptide (N); expressed in transfected cells; host or cells: HEK293T
Experimental: as §1, §2

T3 sequence (P48442 20-1079 S170A/E837A): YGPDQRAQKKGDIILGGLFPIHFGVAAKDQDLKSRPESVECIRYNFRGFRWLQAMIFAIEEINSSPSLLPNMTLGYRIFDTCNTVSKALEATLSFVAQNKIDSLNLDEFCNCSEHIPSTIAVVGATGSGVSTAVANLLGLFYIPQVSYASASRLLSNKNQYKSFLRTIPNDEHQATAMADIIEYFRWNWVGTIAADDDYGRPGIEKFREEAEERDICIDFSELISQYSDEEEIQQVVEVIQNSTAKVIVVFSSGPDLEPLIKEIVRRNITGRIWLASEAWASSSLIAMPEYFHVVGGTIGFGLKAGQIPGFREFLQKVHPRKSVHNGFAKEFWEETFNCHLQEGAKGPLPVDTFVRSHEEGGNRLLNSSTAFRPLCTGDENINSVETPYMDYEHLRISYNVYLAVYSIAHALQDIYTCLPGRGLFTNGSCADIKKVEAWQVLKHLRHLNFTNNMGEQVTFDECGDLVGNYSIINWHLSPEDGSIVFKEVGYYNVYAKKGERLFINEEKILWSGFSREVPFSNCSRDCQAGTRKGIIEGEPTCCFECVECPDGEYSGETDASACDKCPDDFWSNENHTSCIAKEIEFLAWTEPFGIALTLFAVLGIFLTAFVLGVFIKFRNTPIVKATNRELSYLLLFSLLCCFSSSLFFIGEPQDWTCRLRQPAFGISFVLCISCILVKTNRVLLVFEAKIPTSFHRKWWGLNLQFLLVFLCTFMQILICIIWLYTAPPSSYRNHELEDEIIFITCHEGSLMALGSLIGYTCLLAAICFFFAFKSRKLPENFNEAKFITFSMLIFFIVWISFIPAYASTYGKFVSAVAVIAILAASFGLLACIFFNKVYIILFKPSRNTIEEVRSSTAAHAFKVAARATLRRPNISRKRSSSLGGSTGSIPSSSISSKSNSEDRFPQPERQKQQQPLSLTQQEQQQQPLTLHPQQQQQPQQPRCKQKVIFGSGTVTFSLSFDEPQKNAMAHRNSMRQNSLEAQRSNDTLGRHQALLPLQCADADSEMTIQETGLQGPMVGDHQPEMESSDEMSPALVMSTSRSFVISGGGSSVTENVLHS
T3 sequence (P48442 20-1079 F801A/E837A): as the sequence (P48442 20-1079 S170A/E837A) above, with A151S, F782A counted along it
T2 sequence (P48442 20-1079 S170A): as the sequence (P48442 20-1079 S170A/E837A) above, with A818E counted along it
T2 sequence (P48442 20-1079 F801A/E837A): as the sequence (P48442 20-1079 S170A/E837A) above, with A151S, F782A counted along it

potentiation of Ca^2+-mediated response ([1]; S170A:F801A/E837A heterodimer, 0.05, 0.1 and 1 μM NPS R-568): potentiated
potentiation of Ca^2+-mediated response ([2]; S170A/E837A:F801A/E837A heterodimer, 0.05, 0.1 and 1 μM NPS R-568): not potentiated
Structure (SMILES): COc1cccc([C@@H](C)NCCCc2ccccc2Cl)c1.Cl [NPS R-568, NPS R-568 hydrochloride]
effect on the Ca^2+-induced response (HA-E837A CaSR mutant; 1 μM NPS R-568): neither NPS R-568 nor NPS 2143 had any significant effect

EC50 (HA-E837A CaSR mutant; Ca^2+ alone): 3.4 mM
pEC50 ± S.E.M. (HA-E837A CaSR mutant; Ca^2+ alone): 2.47 ± 0.01
Max ± S.E.M. (HA-E837A CaSR mutant; Ca^2+ alone, normalized to maximum response of WT CaSR): 87 ± 16%
EC50 (HA-E837A CaSR mutant; Ca^2+ with 1 μM NPS R-568): 3.88 mM
pEC50 ± S.E.M. (HA-E837A CaSR mutant; Ca^2+ with 1 μM NPS R-568): 2.41 ± 0.04
Max ± S.E.M. (HA-E837A CaSR mutant; Ca^2+ with 1 μM NPS R-568, normalized to maximum response with Ca^2+ alone for the construct): 100 ± 5%
EC50 (HA-E837A CaSR mutant; Ca^2+ with 5 μM NPS 2143): 3.46 mM
pEC50 ± S.E.M. (HA-E837A CaSR mutant; Ca^2+ with 5 μM NPS 2143): 2.46 ± 0.02
Max ± S.E.M. (HA-E837A CaSR mutant; Ca^2+ with 5 μM NPS 2143, normalized to maximum response with Ca^2+ alone for the construct): 91 ± 5.7%
Structure (SMILES): [Ca+2] [Ca^2+]

inhibition of Ca^2+-mediated response ([1]; S170A:F801A/E837A heterodimer, 5 μM NPS 2143): full inhibition
inhibition of Ca^2+-mediated response ([2]; S170A/E837A:F801A/E837A heterodimer, 0.2, 1 and 5 μM NPS 2143): not subjected to inhibition
Structure (SMILES): CC(C)(Cc1ccc2ccccc2c1)NC[C@@H](O)COc1cccc(Cl)c1C#N.Cl [NPS 2143, NPS 2143 hydrochloride]
effect on the Ca^2+-induced response (HA-E837A CaSR mutant; 5 μM NPS 2143): neither NPS R-568 nor NPS 2143 had any significant effect
